# In patent US12617772B2, “Hydroxypyridine HSD17B13 inhibitors and uses thereof” (INIPHARM, INC., priority 2021, dated 2026):
# Biological target: T1, HSD17B13 (Homo sapiens, UniProt Q7Z5P4)
# T1 construct: His; made in house; host or cells: E. coli
# T1 sequence (Q7Z5P4 20-300): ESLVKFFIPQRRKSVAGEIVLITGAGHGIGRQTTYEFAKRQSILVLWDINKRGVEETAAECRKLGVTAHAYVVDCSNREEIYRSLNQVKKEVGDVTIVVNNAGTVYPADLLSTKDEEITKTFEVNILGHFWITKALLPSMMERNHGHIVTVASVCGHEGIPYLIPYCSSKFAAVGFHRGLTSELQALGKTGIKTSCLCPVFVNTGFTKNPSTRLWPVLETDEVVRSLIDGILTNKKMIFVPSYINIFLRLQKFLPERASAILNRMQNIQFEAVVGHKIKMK
# Assay: LC/MS estrone detection assay: conversion of estradiol to estrone by HSD17B13
# Format: biochemical
# Details: 4 μM estradiol, 6 mM NAD, 30 nM HSD17B13 enzyme (E. coli expressed His-tagged), 2 hours at 26.5° C.
# Method: Example A: Estrone Detection Assay for Evaluation of HSD17ß13 Activity and Identification of Inhibitors
# The liquid chromatography/mass spectrometry (LC/MS) estrone detection assay monitors the conversion of estradiol to estrone by HSD17B13. This assay was undertaken in a 96 wp format (Eppendorf deep well Plate 96/500) in an 80 μl reaction volume containing: 4 μM of Estradiol (E2; Cayman; #10006315), 6 mM NAD (Sigma; #N0623) and 30 nM HSD17B13 enzyme (in-house; E. coli expressed His-tagged, purified, soluble protein) in a reaction containing […] potassium phosphate buffer pH 7.4, with 0.5% vehicle (DMSO). Reactions were incubated for 2 hours at 26.5° C., and estradiol (E2) conversion to estrone (E1) was quantitated by LC-MS/MS based analyte detection for both E2 and E1 using LCMS grade reagents.
# Reactions were terminated by the addition of two volumes of acetonitrile (MeCN: LCMS grade; CAS #75/05/8) containing deuterated (D4)-E1 used as internal standard (Clear Synth: #CS-T-54273; 500 ng/ml final concentration). Samples were applied to pre-prepared Bond Elut-C18 extraction cartridges (3 mL; Agilent; #12102028), washed and eluted in MeCN. Eluates were dried under nitrogen and re-suspended in 60% methanol (LCMS grade methanol; CAS #67/56/1) before submission for analysis. Aqueous linearity for E2 and E1 were included for quantification.
# Analysis of samples was undertaken on a XBridge BEH C18 column (Waters; #186003033) using 0.1% Diethyl Amine in MeCN (mobile phase A; DEA CAS #109-89-7) and 0.1% Diethyl Amine in milli-Q water (mobile phase B) in a 3 min gradient allowing 25% B. Analytes were detected in negative mode using MRM analysis, with E2 having a RT of 1.85 min and E1 having a RT of 2 min. Activity of the enzyme, in the absence of NAD^+, was used to evaluate specificity of conversion. Enzyme activity in the presence of test samples was expressed as a percentage of the uninhibited enzyme activity, and plotted versus inhibitor concentration. Non-linear regression was performed using a four-parameter logistic model and GraphPad Prism software (GraphPad Software, La Jolla, CA). All assessments were undertaken in duplicate evaluations and pooled during extraction process and subsequently injected as duplicates for LC-MS/MS analysis.
row,SMILES,IC50
1,"COc1ccccc1CCn1cnc2cccc(NC(=O)c3ccc(O)c(C(F)(F)F)n3)c2c1=O [Example 6, 5-hydroxy-N-(3-(2-methoxyphenethyl)-4-oxo-3,4-dihydroquinazolin-5-yl)-6-(trifluoromethyl) picolinamide]",≤ 100 nM
2,"O=C(Nc1cccc2ncn(CCc3ccccc3OC(F)(F)F)c(=O)c12)c1ccc(O)c(C(F)(F)F)n1 [Example 1, 5-hydroxy-N-(4-oxo-3-(2-(trifluoromethoxy)phenethyl)-3,4-dihydroquinazolin-5-yl)-6-(trifluoromethyl)picolinamide]",≤ 100 nM
3,"O=C(Nc1cccc2ncn(Cc3ccccc3OC(F)(F)F)c(=O)c12)c1ccc(O)c(C(F)(F)F)n1 [Example 3, 5-hydroxy-N-(4-oxo-3-{[2-(trifluoromethoxy)phenyl]methyl}-3,4-dihydroquinazolin-5-yl)-6-(trifluoromethyl) pyridine-2-carboxamide]",≤ 100 nM
4,"O=C(Nc1cccc2ncn(CCc3ccccc3C(F)(F)F)c(=O)c12)c1ccc(O)c(C(F)(F)F)n1 [Example 2, 5-hydroxy-N-(4-oxo-3-(2-(trifluoromethyl)phenethyl)-3,4-dihydroquinazolin-5-y1)-6-(trifluoromethyl)picolinamide]",100 to 500 nM
5,"O=C(Nc1cc(Cl)sc1C(=O)NCCc1ccccc1OC(F)(F)F)c1ccc(O)c(C(F)(F)F)n1 [Example 7, N-(5-chloro-2-((2-(trifluoromethoxy)phenethyl)carbamoyl)thiophen-3-y1)-5-hydroxy-6-(trifluoromethyl)picolinamide]",100 to 500 nM
6,"CC(C)(C)CCNC(=O)c1sccc1NC(=O)c1ccc(O)c(C(F)(F)F)n1 [Example 5, N-(2-((3,3-dimethylbutyl)carbamoyl)thiophen-3-y1)-5-hydroxy-6-(trifluoromethyl) picolinamide]",≤ 100 nM
